Results published in patent US11739070B2, “C5A receptor modulators” (IDORSIA PHARMACEUTICALS LTD, priority 2018, dated 2023).

What follows are compounds tested against T1, C5AR1 (Homo sapiens, UniProt P21730) (assay: hC5a DISCO IC50 assay (PathHunter beta-arrestin, antagonist mode)). Conditions: CHO-K1 C5AR1 beta-arrestin cell line; antagonist vs 1-10 nM C5a agonist; geometric mean values; read-out: C5aR IC50.
T1 construct: host or cells: CHO-K1
T1 sequence (P21730 1-350): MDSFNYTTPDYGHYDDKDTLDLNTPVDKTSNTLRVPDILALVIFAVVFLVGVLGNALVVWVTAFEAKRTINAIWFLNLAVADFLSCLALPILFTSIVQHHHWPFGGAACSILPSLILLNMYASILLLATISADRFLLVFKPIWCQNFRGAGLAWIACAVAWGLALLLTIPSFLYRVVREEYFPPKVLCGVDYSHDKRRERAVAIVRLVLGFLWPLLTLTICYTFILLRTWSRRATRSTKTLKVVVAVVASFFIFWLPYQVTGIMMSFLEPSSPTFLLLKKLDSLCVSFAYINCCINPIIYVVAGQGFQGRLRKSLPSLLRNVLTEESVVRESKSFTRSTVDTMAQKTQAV
Type: cell-based
Method in brief: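 Antagonist added first, then 1-10 nM C5a agonist; cells incubated 1.5 h at 37 °C. Beta-arrestin signal developed with PathHunter detection reagent, 45 min at RT. IC50 in nmol/l from serial antagonist dilutions, reported as geometric mean of several measurements.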
`COc1cccc2c1n(Cc1ccccc1C(F)(F)F)c(=O)n2C1CCCN(c2c(C)cccc2F)C1` (stereo not shown) [Example 212, 1-[1-(2-Fluoro-6-methyl-phenyl)-piperidin-3-yl]-4-methoxy-3-(2-trifluoromethyl-benzyl)-1,3-dihydro-benzoimidazol-2-one] showed an IC50 of 2080 nM.
`COc1cccc2c1n(Cc1ccccc1C(F)(F)F)c(=O)n2C1CN(C(=O)OC(C)(C)C)C1` [Example 213, 3-[4-Methoxy-2-oxo-3-(2-trifluoromethyl-benzyl)-2,3-dihydro-benzoimidazol-1-yl]-azetidine-1-carboxylic acid tert-butyl ester] showed an IC50 of 469 nM.
With `COc1cccc2c1n(Cc1ccccc1C(F)(F)F)c(=O)n2C1CCCN(C(=O)OC(C)(C)C)C1` (stereo not shown) [Example 214, 3-[4-Methoxy-2-oxo-3-(2-trifluoromethyl-benzyl)-2,3-dihydro-benzoimidazol-1-yl]-piperidine-1-carboxylic acid tert-butyl ester] the IC50 was 205 nM.
Work on `COc1cccc2c1n(Cc1ccccc1C(F)(F)F)c(=O)n2C1CN(c2c(C)cccc2F)C1` [Example 215, 1-[1-(2-Fluoro-6-methyl-phenyl)-azetidin-3-yl]-4-methoxy-3-(2-trifluoromethyl-benzyl)-1,3-dihydro-benzoimidazol-2-one] yielded an IC50 of 27 nM.
For `COc1cccc2c1n(Cc1ncccc1C(F)(F)F)c(=O)n2C1CCN(c2c(C)cccc2F)CC1` [Example 216, 1-[1-(2-Fluoro-6-methyl-phenyl)-piperidin-4-yl]-4-methoxy-3-(3-trifluoromethyl-pyridin-2-ylmethyl)-1,3-dihydro-benzoimidazol-2-one], the IC50 was 12 nM.
With `COc1cccc2c1n(Cc1ccccc1C(F)(F)F)c(=O)n2C1CCCN(c2c(C)cccc2C)C1` (stereo not shown) [Example 217, 1-[1-(2,6-Dimethyl-phenyl)-piperidin-3-yl]-4-methoxy-3-(2-trifluoromethyl-benzyl)-1,3-dihydro-benzoimidazol-2-one] the IC50 was 158 nM.
`COc1cccc2c1n(Cc1csc(C(F)(F)F)n1)c(=O)n2[C@@H]1CCN(c2c(C)cccc2F)C1` [Example 218, 1-[(R)-1-(2-Fluoro-6-methyl-phenyl)-pyrrolidin-3-yl]-4-methoxy-3-(2-trifluoromethyl-thiazol-4-ylmethyl)-1,3-dihydro-benzoimidazol-2-one] gave an IC50 of 346 nM.
With `COc1cccc2c1n([C@@H](C)c1ccccc1C(F)(F)F)c(=O)n2C1CCN(c2c(C)cccc2F)C1` (stereo partly drawn) [Example 219, 1-[1-(2-Fluoro-6-methyl-phenyl)-pyrrolidin-3-yl]-4-methoxy-3-[(S)-1-(2-trifluoromethyl-phenyl)-ethyl]-1,3-dihydro-benzoimidazol-2-one] the IC50 was 34 nM.
In the case of `COc1cccc2c1n(Cc1c(F)cc(F)cc1OC(C)C)c(=O)n2[C@@H]1CCN(c2c(C)cccc2F)C1` [Example 220, 3-(2,4-Difluoro-6-isopropoxy-benzyl)-1-[(R)-1-(2-fluoro-6-methyl-phenyl)-pyrrolidin-3-yl]-4-methoxy-1,3-dihydro-benzoimidazol-2-one], the IC50 is reported as 109 nM.
`COc1cccc2c1n(Cc1sc(C)nc1C(F)(F)F)c(=O)n2[C@@H]1CCN(c2c(C)cccc2F)C1` [Example 221, 1-[(R)-1-(2-Fluoro-6-methyl-phenyl)-pyrrolidin-3-yl]-4-methoxy-3-(2-methyl-4-trifluoromethyl-thiazol-5-ylmethyl)-1,3-dihydro-benzoimidazol-2-one] was tested, and the IC50 was 175 nM.
Work on `COc1cccc2c1n(Cc1ccccc1C(F)(F)F)c(=O)n2C1CCN(C(=O)C2CC2)CC1` [Example 222, 1-(1-Cyclopropanecarbonyl-piperidin-4-yl)-4-methoxy-3-(2-trifluoromethyl-benzyl)-1,3-dihydro-benzoimidazol-2-one] yielded an IC50 of 2650 nM.
With `COc1cccc2c1n(Cc1ccccc1C1CC1)c(=O)n2C1CCN(c2c(C)cccc2F)CC1` [Example 223, 3-(2-Cyclopropyl-benzyl)-1-[1-(2-fluoro-6-methyl-phenyl)-piperidin-4-yl]-4-methoxy-1,3-dihydro-benzoimidazol-2-one] the IC50 was 130 nM.
In the case of `COc1cccc2c1n(Cc1ccccc1OCC1CC1)c(=O)n2C1CCN(c2c(C)cccc2F)CC1` [Example 224, 3-(2-Cyclopropylmethoxy-benzyl)-1-[1-(2-fluoro-6-methyl-phenyl)-piperidin-4-yl]-4-methoxy-1,3-dihydro-benzoimidazol-2-one], the IC50 is reported as 18 nM.
`COc1cccc2c1n(Cc1ccccc1OC1COC1)c(=O)n2C1CCN(c2c(C)cccc2F)CC1` [Example 225, 1-[1-(2-Fluoro-6-methyl-phenyl)-piperidin-4-yl]-4-methoxy-3-[2-(oxetan-3-yloxy)-benzyl]-1,3-dihydro-benzoimidazol-2-one] gave an IC50 of 40 nM.
Compound `COc1cccc2c1n(Cc1ccccc1OC1CCC1)c(=O)n2C1CCN(c2c(C)cccc2F)CC1` [Example 226, 3-(2-Cyclobutoxy-benzyl)-1-[1-(2-fluoro-6-methyl-phenyl)-piperidin-4-yl]-4-methoxy-1,3-dihydro-benzoimidazol-2-one] has an IC50 of 36 nM.
Compound `COc1cccc2c1n(Cc1ccccc1C(F)(F)F)c(=O)n2C1CCN(c2c(C)cccc2F)CC1(C)C` (stereo not shown) [Example 227, 1-[1-(2-Fluoro-6-methyl-phenyl)-3,3-dimethyl-piperidin-4-yl]-4-methoxy-3-(2-trifluoromethyl-benzyl)-1,3-dihydro-benzoimidazol-2-one] has an IC50 of 30 nM.
In the case of `COc1cccc2c1n(Cc1ccccc1C(F)(F)F)c(=O)n2C1CCN(C(=O)OC(C)(C)C)CC1(C)C` (stereo not shown) [Example 228, 4-[4-Methoxy-2-oxo-3-(2-trifluoromethyl-benzyl)-2,3-dihydro-benzoimidazol-1-yl]-3,3-dimethyl-piperidine-1-carboxylic acid tert-butyl ester], the IC50 is reported as 259 nM.
In the case of `COc1cncc2c1n(Cc1ccccc1C(F)(F)F)c(=O)n2C1CCN(c2c(C)cccc2F)CC1` [Example 229, 3-[1-(2-Fluoro-6-methyl-phenyl)-piperidin-4-yl]-7-methoxy-1-(2-trifluoromethyl-benzyl)-1,3-dihydro-imidazo[4,5-c]pyridin-2-one], the IC50 is reported as 268 nM.
With `COc1cccc2c1n(Cc1ccccc1C(F)(F)F)c(=O)n2C1CCN(c2ccccc2O)CC1` [Example 230, 1-[1-(2-Hydroxy-phenyl)-piperidin-4-yl]-4-methoxy-3-(2-trifluoromethyl-benzyl)-1,3-dihydro-benzoimidazol-2-one] the IC50 was 129 nM.
With `COc1cccc2c1n(Cc1ccccc1C(F)(F)F)c(=O)n2C1CCN(c2ccccc2OCc2ccccc2)CC1` [Example 231, 1-[1-(2-Benzyloxy-phenyl)-piperidin-4-yl]-4-methoxy-3-(2-trifluoromethyl-benzyl)-1,3-dihydro-benzoimidazol-2-one] the IC50 was 66 nM.
Work on `COc1cccc2c1n(Cc1ccccc1C(F)(F)F)c(=O)n2C1CCN(c2ncccc2C)CC1` [Example 232, 4-Methoxy-1-(3′-methyl-3,4,5,6-tetrahydro-2H-[1,2′]bipyridinyl-4-yl)-3-(2-trifluoromethyl-benzyl)-1,3-dihydro-benzoimidazol-2-one] yielded an IC50 of 82 nM.
For `COc1cccnc1N1CCC(n2c(=O)n(Cc3ccccc3C(F)(F)F)c3c(OC)cccc32)CC1` [Example 233, 4-Methoxy-1-(3′-methoxy-3,4,5,6-tetrahydro-2H-[1,2′]bipyridinyl-4-yl)-3-(2-trifluoromethyl-benzyl)-1,3-dihydro-benzoimidazol-2-one], the IC50 was 195 nM.
Compound `COc1nccc(C)c1N1CCC(n2c(=O)n(Cc3ccccc3C(F)(F)F)c3c(OC)cccc32)CC1` [Example 234, 4-Methoxy-1-(2′-methoxy-4′-methyl-3,4,5,6-tetrahydro-2H-[1,3′]bipyridinyl-4-yl)-3-(2-trifluoromethyl-benzyl)-1,3-dihydro-benzoimidazol-2-one] has an IC50 of 17 nM.
Work on `COc1cccc2c1n(Cc1ccccc1C(F)(F)F)c(=O)n2C1CCN(c2c(C)ccnc2F)CC1` [Example 235, 1-(2′-Fluoro-4′-methyl-3,4,5,6-tetrahydro-2H-[1,3′]bipyridinyl-4-yl)-4-methoxy-3-(2-trifluoromethyl-benzyl)-1,3-dihydro-benzoimidazol-2-one] yielded an IC50 of 28 nM.
With `COc1cccc2c1n(Cc1ccccc1C(F)(F)F)c(=O)n2C1CCN(c2ncccc2F)CC1` [Example 236, 1-(3′-Fluoro-3,4,5,6-tetrahydro-2H-[1,2′]bipyridinyl-4-yl)-4-methoxy-3-(2-trifluoromethyl-benzyl)-1,3-dihydro-benzoimidazol-2-one] the IC50 was 171 nM.
Compound `COc1cccc2c1n(Cc1ccccc1C(F)(F)F)c(=O)n2C1CCN(c2c(C)ccnc2C)CC1` [Example 237, 1-(2′,4′-Dimethyl-3,4,5,6-tetrahydro-2H-[1,3′]bipyridinyl-4-yl)-4-methoxy-3-(2-trifluoromethyl-benzyl)-1,3-dihydro-benzoimidazol-2-one] has an IC50 of 90 nM.
Compound `COc1cccc2c1n(Cc1ccccc1C(F)(F)F)c(=O)n2C1CCN(c2ccccc2OCCO)CC1` [Example 238, 1-{1-[2-(2-Hydroxy-ethoxy)-phenyl]-piperidin-4-yl}-4-methoxy-3-(2-trifluoromethyl-benzyl)-1,3-dihydro-benzoimidazol-2-one] has an IC50 of 133 nM.
`COc1cccc2c1n(Cc1ccccc1C(F)(F)F)c(=O)n2C1CCN(c2ccccc2OC2CCOCC2)CC1` [Example 239, 4-Methoxy-1-{1-[2-(tetrahydro-pyran-4-yloxy)-phenyl]-piperidin-4-yl}-3-(2-trifluoromethyl-benzyl)-1,3-dihydro-benzoimidazol-2-one] was tested, and the IC50 was 82 nM.
